Measurements published in the NIST ThermoML archive (doi:10.1016/j.jct.2007.05.016).

Assay: xn = mol fraction of the nth substance listed
Details: 101 kPa, Liquid; for speed of sound: Sing-around technique in a fixed-path interferometer

CCCCCCCCCC [decane] + CCCCO
Details | mass density, 298.15 K [kg/m3] | mass density, 303.15 K [kg/m3] | mass density, 308.15 K [kg/m3] | speed of sound, 298.15 K [m/s] | speed of sound, 303.15 K [m/s] | speed of sound, 308.15 K [m/s] | viscosity, 298.15 K [mPa·s]
x2 = 0 | 726.806 | 723.042 | 719.23 | 1234.8 | 1215.2 | 1195.6 | 0.852
x2 = 0.0678 | 728.769 | 724.903 | 721.031 | 1230.4 | 1210.6 | 1191.9 | 0.845
x2 = 0.1105 | 730.259 | 726.415 | 722.511 | 1228.8 | 1209.1 | 1189.4 | 0.855
x2 = 0.1614 | 732.194 | 728.365 | 724.437 | 1227.3 | 1207.6 | 1187.9 | 0.868
x2 = 0.2372 | 735.44 | 731.639 | 727.679 | 1225.4 | 1206.1 | 1185.5 | 0.895
x2 = 0.3068 | 738.779 | 734.994 | 731.004 | 1224.1 | 1204.5 | 1184.6 | 0.931
x2 = 0.4278 | 745.484 | 741.679 | 737.66 | 1222.9 | 1203.7 | 1183.8 | 1.019
x2 = 0.5071 | 750.606 | 746.798 | 742.769 | 1222.8 | 1203.8 | 1184.3 | 1.102
x2 = 0.5547 | 754.019 | 750.194 | 746.151 | 1222.9 | 1203.9 | 1184.8 | 1.164
x2 = 0.6068 | 758.098 | 754.237 | 750.219 | 1223.4 | 1204.5 | 1185.6 | 1.244
x2 = 0.7032 | 766.65 | 762.82 | 758.774 | 1224.9 | 1206.3 | 1187.6 | 1.432
x2 = 0.8036 | 777.321 | 773.625 | 769.593 | 1227.9 | 1210.2 | 1191.3 | 1.685
x2 = 0.8498 | 782.998 | 779.309 | 775.279 | 1229.9 | 1212.4 | 1194 | 1.843
x2 = 0.9015 | 790.035 | 786.406 | 782.421 | 1232.8 | 1215.7 | 1197.9 | 2.047
x2 = 0.95 | 797.464 | 794.041 | 790.078 | 1236.2 | 1219.9 | 1203.1 | 2.277

CCCCCC [hexane] + CCCCO
Details | mass density, 298.15 K [kg/m3] | mass density, 303.15 K [kg/m3] | mass density, 308.15 K [kg/m3] | speed of sound, 298.15 K [m/s] | speed of sound, 303.15 K [m/s] | speed of sound, 308.15 K [m/s] | viscosity, 298.15 K [mPa·s]
x2 = 0 | 655.072 | 650.369 | 645.767 | 1077.8 | 1055.2 | 1032.9 | 0.313
x2 = 0.0507 | 660.196 | 655.432 | 650.791 | 1077.6 | 1054.9 | 1032.7 | 0.323
x2 = 0.101 | 665.602 | 660.733 | 656.143 | 1079.4 | 1056.8 | 1034.5 | 0.338
x2 = 0.1524 | 671.434 | 666.54 | 661.908 | 1082.5 | 1059.9 | 1037.6 | 0.356
x2 = 0.2574 | 684.29 | 679.54 | 674.857 | 1091.7 | 1069.1 | 1046.8 | 0.409
x2 = 0.379 | 700.46 | 696.019 | 691.525 | 1106.3 | 1083.7 | 1062 | 0.505
x2 = 0.4125 | 705.163 | 700.869 | 696.345 | 1111.1 | 1088.5 | 1066.7 | 0.547
x2 = 0.4502 | 710.564 | 706.47 | 701.99 | 1116.7 | 1094.1 | 1072.3 | 0.587
x2 = 0.5121 | 719.663 | 715.869 | 711.606 | 1126.5 | 1103.9 | 1082.5 | 0.679
x2 = 0.6005 | 733.301 | 730.025 | 725.938 | 1141.9 | 1120.8 | 1099.2 | 0.854
x2 = 0.7004 | 749.66 | 746.763 | 742.943 | 1162.2 | 1141.1 | 1120.6 | 1.11
x2 = 0.8202 | 770.812 | 767.985 | 764.319 | 1190.9 | 1171.5 | 1151.5 | 1.541
x2 = 0.8523 | 776.78 | 773.953 | 770.292 | 1199 | 1179.9 | 1160.3 | 1.685
x2 = 0.8957 | 785.079 | 782.252 | 778.547 | 1210.5 | 1192.1 | 1172.9 | 1.901
x2 = 0.9476 | 795.298 | 792.462 | 788.743 | 1225.1 | 1207.9 | 1189.6 | 2.209

CCCCCCCC [octane] + CCCCO
Details | mass density, 298.15 K [kg/m3] | mass density, 303.15 K [kg/m3] | mass density, 308.15 K [kg/m3] | speed of sound, 298.15 K [m/s] | speed of sound, 303.15 K [m/s] | speed of sound, 308.15 K [m/s] | viscosity, 298.15 K [mPa·s]
x2 = 0 | 698.58 | 694.497 | 690.416 | 1172.7 | 1152.1 | 1131.7 | 0.518
x2 = 0.0563 | 701.448 | 697.299 | 693.192 | 1169.8 | 1149.2 | 1128.6 | 0.525
x2 = 0.1091 | 704.623 | 700.473 | 696.337 | 1169.4 | 1148.8 | 1128.2 | 0.54
x2 = 0.1579 | 707.716 | 703.646 | 699.455 | 1169.4 | 1149 | 1128.1 | 0.55
x2 = 0.2245 | 712.309 | 708.268 | 704.085 | 1170.1 | 1149.5 | 1129.2 | 0.585
x2 = 0.3117 | 718.911 | 714.997 | 710.775 | 1172.1 | 1151.8 | 1131.4 | 0.636
x2 = 0.4013 | 726.41 | 722.577 | 718.357 | 1175.4 | 1155.4 | 1135.6 | 0.708
x2 = 0.4519 | 731.021 | 727.253 | 723.057 | 1177.8 | 1158.1 | 1138 | 0.762
x2 = 0.5106 | 736.716 | 733.019 | 728.779 | 1181.2 | 1161.7 | 1141.9 | 0.837
x2 = 0.6032 | 746.6 | 742.919 | 738.734 | 1187.9 | 1169.1 | 1149.6 | 0.992
x2 = 0.7087 | 759.397 | 755.747 | 751.584 | 1197.5 | 1179.4 | 1160.3 | 1.232
x2 = 0.8063 | 772.907 | 769.349 | 765.239 | 1208.9 | 1191.2 | 1172.8 | 1.539
x2 = 0.8492 | 779.452 | 775.973 | 771.885 | 1214.9 | 1197.5 | 1179.4 | 1.711
x2 = 0.909 | 789.203 | 786.026 | 781.895 | 1223.7 | 1207.2 | 1189.3 | 1.991
x2 = 0.956 | 797.537 | 794.495 | 790.449 | 1231.9 | 1215.5 | 1198.8 | 2.262
